Counter-ions that a name gives are not always drawn.
The compounds below were run against T1, chimeric receptor containing the EGFR extracellular domain and intracellular HER2 kinase domain (Homo sapiens, UniProt P04626) (assay: EGF Receptor-HER2 chimeric receptor assay in whole cells (ELISA)). Conditions: read-out: HER-2 kinase IC50.
T1 construct: fused on or other part: EGFR ectodomain + HER2 intracellular part, ATP-site indolinones: HER2's kinase
Assay type: cell-based
Experimental: EGF Receptor-HER2 Chimeric Receptor Assay In Whole Cells.
HER2 kinase activity in whole EGFR-NIH3T3 cells are measured as described below:
• a. […] 05-101 (UBI) (a monoclonal antibody recognizing an EGFR extracellular domain). • c. Anti-phosphotyrosine antibody (anti-Ptyr) (polyclonal) (see, Fendley, et al., supra). • d. Detection antibody: Goat anti-rabbit IgG horseradish peroxidase conjugate, TAGO, Inc., Burlingame, Calif. • e. TBST buffer:
• h. Stock reagents of:
Pre-coat ELISA Plate • 1. […] Coated plates are good for up to 10 days when stored at 4° C. • 2. On day of use, remove coating buffer and replace with 100 μl blocking buffer (5% Carnation Instant Non-Fat Dry Milk in PBS). Incubate the plate, shaking, at room temperature (about 23° C. to 25° C.) for 30 minutes. Just prior to use, remove blocking buffer and wash plate 4 times with TBST buffer.
Seeding Cells • 1. An NIH3T3 cell line overexpressing a chimeric receptor containing the EGFR extracellular domain and intracellular HER2 kinase domain can be used for this assay. • 2. Choose dishes having 80-90% confluence for the experiment. Trypsinize cells and stop reaction by adding 10% fetal bovine serum. Suspend cells in DMEM medium (10% CS DMEM medium) and centrifuge once at 1500 rpm, at room temperature for 5 minutes. • 3. Resuspend cells in seeding medium (DMEM, 0.5% bovine serum), and count the cells using trypan blue. Viability above 90% is acceptable. Seed cells in DMEM medium (0.5% bovine serum) at a density of 10,000 cells per well, 100 μl per well, in a 96 well microtiter plate. Incubate seeded cells in 5% CO2. at 37° C. for about 40 hours.
Assay Procedures • 1. Check seeded cells for contamination using an inverted microscope. Dilute drug stock (10 mg/ml in DMSO) 1:10 in DMEM medium, then transfer 5 μl to a […] well for a final drug dilution of 1:200 and a final DMSO concentration of 1%. Control wells receive DMSO alone. Incubate in 5% CO2 at 37° C. for two hours. • 2. Prepare EGF ligand: dilute stock EGF in DMEM so that upon transfer of 10 μl dilute EGF (1:12 dilution), 100 nM final concentration is attained. • 3. Prepare fresh HNTG* sufficient for 100 μl per well, and place on ice.
• 4. After 120 minutes incubation with drug, add prepared […] ligand to cells, 10 μl per well, to a final concentration of 100 nM. Control wells receive DMEM alone. Incubate with shaking, at room temperature, for 5 minutes. • 5. Remove drug, EGF, and DMEM. Wash cells twice with PBS. Transfer HNTG* to cells, 100 μl per well. Place on ice for 5 minutes. Meanwhile, remove blocking buffer from other ELISA plate and wash with TBST as described above. • 6. With a pipette tip securely fitted to a micropipettor, scrape cells from plate and homogenize cell material by repeatedly aspirating and dispensing the HNTG* lysis buffer. Transfer lysate to a coated, blocked, and washed ELISA plate. Incubate shaking at room temperature for one hour. • 7. Remove lysate and wash 4 times with TBST. Transfer freshly diluted anti-Ptyr antibody to ELISA plate at 100 μl per well. Incubate shaking at room temperature for 30 minutes in the presence of the anti-Ptyr antiserum (1:3000 dilution in TBST). • 8. Remove the anti-Ptyr antibody and wash 4 times with TBST. Transfer the freshly diluted TAGO anti-rabbit IgG antibody to the ELISA plate at 100 μl per well. Incubate shaking at room temperature for 30 minutes (anti-rabbit IgG antibody: 1:3000 dilution in TBST). • 9. Remove TAGO detection antibody and wash 4 times with TBST. Transfer freshly prepared ABTS/H2O2 solution to ELISA plate, 100 μl per well. Incubate shaking at room temperature for 20 minutes. (ABTS/H2O2 solution: 1.0 μl 30% H2O2 in 10 ml ABTS stock). • 10. Stop reaction by adding 50 μl 5N H2SO4 (optional), and determine O.D. at 410 nm. • 11. The maximal phosphotyrosine signal is determined by subtracting the value of the negative controls from the positive controls. […]

T1 sequence (P04626 720-1255 limits assumed, change not shown): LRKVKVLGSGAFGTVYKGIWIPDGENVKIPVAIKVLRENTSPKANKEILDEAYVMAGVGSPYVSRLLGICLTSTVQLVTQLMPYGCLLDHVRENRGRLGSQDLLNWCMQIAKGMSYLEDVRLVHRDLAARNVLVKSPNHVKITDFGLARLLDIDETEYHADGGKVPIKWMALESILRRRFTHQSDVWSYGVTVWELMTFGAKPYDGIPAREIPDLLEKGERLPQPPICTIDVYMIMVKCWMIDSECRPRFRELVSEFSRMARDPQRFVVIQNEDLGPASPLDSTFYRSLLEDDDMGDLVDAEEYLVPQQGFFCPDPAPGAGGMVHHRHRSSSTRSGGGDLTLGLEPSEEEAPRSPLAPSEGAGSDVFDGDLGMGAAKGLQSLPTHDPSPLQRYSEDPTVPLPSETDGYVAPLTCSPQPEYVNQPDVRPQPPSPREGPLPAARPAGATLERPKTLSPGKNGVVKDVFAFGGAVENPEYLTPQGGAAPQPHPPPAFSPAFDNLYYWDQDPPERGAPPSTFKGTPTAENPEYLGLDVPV

SMILES	IC50
O=C1Nc2ccccc2/C1=C\c1ccc2c(c1)CCO2 [Example 66, 3-(2,3-Dihydrobenzofuran-5-ylmethylene)-1,3-dihydroindol-2-one]	> 100 µM
Cc1c(/C=C2\C(=O)Nc3ccc(C(=O)O)cc32)[nH]c2ccccc12 [Example 156, 3-(3-Methyl-1H-indol-2-ylmethylene)-2-oxo-2,3-dihydro-1H-indole-5-carboxylic acid (piperidine salt)]	> 100 µM
CC(=O)Nc1ccc2c(c1)NC(=O)/C2=C/c1ccc(OCCN2CCOCC2)c(-c2ccsc2)c1 [Example 50, N-{3-[4-(2-Morpholin-4-ylethoxy)-3-thiophen-3-ylbenzylidene]-2-oxo-2,3-dihydro-1H-indol-6-yl}-acetamide]	67.6 µM
Cc1cccc2c1/C(=C/c1ccc3c(c1)CCO3)C(=O)N2 [Example 69, 3-(2,3-Dihydrobenzofuran-5-ylmethylene)-4-methyl-1,3-dihydroindol-2-one]	> 100 µM
CCOC(=O)c1c(C)[nH]c(/C=C2\C(=O)Nc3cc(-c4ccccc4OC)ccc32)c1CCC(=O)O [Example 110, 4-(2-Carboxyethyl)-5-[6-(2-methoxyphenyl)-2-oxo-1,2-dihydro-indol-3-ylidenemethyl]-2-methyl-1H-pyrrol-3-yl-carboxylic acid ethyl ester]	> 100 µM
CNS(=O)(=O)c1ccc2c(c1)C(=Cc1[nH]c3ccccc3c1C)C(=O)N2 (racemic) [Example 154, 3-(3-Methyl-1H-indol-2-ylmethylene)-2-oxo-2,3-dihydro-1H-indole-5-sulfonic acid methylamide]	> 100 µM
O=C1Nc2ccc(Br)cc2/C1=C/c1cc2ccccc2[nH]1 [Example 165, 5-Bromo-3-(1H-indol-2-ylmethylene)-1,3-dihydro-indol-2-one]	> 100 µM
CCOC(=O)c1c(C)[nH]c(/C=C2\C(=O)Nc3cc(-c4ccc(F)cc4)ccc32)c1CCC(=O)O [Example 108, 4-(2-Carboxyethyl)-5-[6-(4-fluorophenyl)-2-oxo-1,2-dihydro-indol-3-ylidenemethyl]-2-methyl-1H-pyrrole-3-carboxylic acid ethyl ester]	> 100 µM
Cc1cccc2c1/C(=C/c1cc3ccccc3[nH]1)C(=O)N2 [Example 166, 3-(1H-indol-2-ylmethylene)-4-methyl-1,3-dihydro-indol-2-one]	> 100 µM
CC(=O)Nc1ccc2c(c1)NC(=O)/C2=C/c1ccc(OCCN2CCOCC2)c(C(C)(C)C)c1 [Example 55, N-{3-[3-tert-Butyl-4-(2-morpholin-4-ylethoxy)-benzylidene]-2-oxo-2,3-dihydro-1H-indol-6-yl}-acetamide]	89.3 µM
O=C1Nc2ccc(F)cc2/C1=C\c1ccc2c(c1)CCO2 [Example 42, 3-(2,3-Dihydrobenzofuran-5-ylmethylene)-5-fluoro-1,3-dihydroindol-2-one]	47.5 µM
Cc1cc(CCC(=O)O)c(/C=C2\C(=O)Nc3cc(-c4ccc(F)cc4)ccc32)[nH]1 [Example 107, 3-{2-[6-(4-Fluorophenyl)-2-oxo-1,2-dihydroindol-3-ylidenemethyl]-5-methyl-1H-pyrrol-3-yl}propionic acid]	> 100 µM
O=C1Nc2ccc(Cl)cc2/C1=C\c1ccc2c(c1)CCO2 [Example 14, 5-Chloro-3-(2,3-dihydro-benzofuran-5-ylmethylene)-1,3-dihydroindol-2-one]	22.7 µM

Next, values leading:

IC50	SMILES
72.8 µM	COc1c(C(C)C)cc(/C=C2/C(=O)Nc3cc(NC(=O)OC(C)(C)C)ccc32)cc1C(C)C [Example 52, [3-(3,5-Diisopropyl-4-methoxybenzylidene)-2-oxo-2,3-dihydro-1H-indol-6-yl]-carbamic acid tert-butyl ester]
> 100 µM	COc1ccccc1-c1ccc2c(c1)NC(=O)/C2=C\c1[nH]c(C)cc1CCC(=O)O [Example 109, 3-{2-[6-(2-Methoxyphenyl)-2-oxo-1,2-dihydroindol-3-ylidenemethyl]-5-methyl-1H-pyrrol-3-yl}-propionic acid]
39.8 µM	Cc1cccc2c1/C(=C/c1ccc3c(c1)CCC(C)(C)O3)C(=O)N2 [Example 41, 3-(2,2-Dimethylchroman-6-ylmethylene)-4-methyl-1,3-dihydroindol-2-one]
65 µM	COc1ccc(/C=C2\C(=O)Nc3cccc(C)c32)cc1C1CCCC1 [Example 48, 3-(3-Cyclopentyl-4-methoxybenzylidene)-4-methyl-1,3-dihydroindol-2-one]
32.3 µM	COc1ccc(/C=C2\C(=O)Nc3cccc(C)c32)cc1C(C)C [Example 38, 3-(3-Isopropyl-4-methoxybenzylidene)-4-methyl-1,3-dihydroindol-2-one]
> 100 µM	COc1ccc(/C=C2\C(=O)Nc3cccc(C)c32)cc1C1CCCCC1 [Example 68, 3-(3-Cyclohexyl-4-methoxybenzylidene)-4-methyl-1,3-dihydroindol-2-one]
90.2 µM	COc1c(C(C)C)cc(/C=C2/C(=O)Nc3cc(N)ccc32)cc1C(C)C [Example 32, 6-Amino-3-(3,5-diisoprotyl-4-methoxy-benzylidene)-1,3-dihydroindol-2-one]
> 100 µM	COc1ccc2c(c1)NC(=O)/C2=C/c1ccc(OC)c(-c2ccsc2)c1 [Example 64, 6-Methoxy-3-(4-methoxy-3-thiophen-3-ylbenzylidene)-1,3-dihydroindol-2-one]
12.4 µM	COc1c(C(C)C)cc(/C=C2/C(=O)Nc3cc(F)ccc32)cc1C(C)C [Example 22, 3-(3,5-Diisopropyl-4-methoxybenzylidene)-6-fluoro-1,3-dihydroindol-2-one]
> 50 µM	O=C1Nc2ncccc2/C1=C\c1ccc2c(c1)CCO2 [Example 73, 3-(2,3-Dihydrobenzofuran-5-ylmethylene)-1,3-dihydropyrrolo[2,3-b]pyridin-2-one]
96.2 µM	COc1c(C)cc(/C=C2/C(=O)Nc3ncccc32)cc1C [Example 56, 3-(4-Methoxy-3,5-dimethylbenzylidene)-1,3-dihydropyrrolo[2,3-b]pyridin-2-one]
80.7 µM	COc1c(C(C)C)cc(/C=C2\C(=O)Nc3cccc(C)c32)cc1C(C)C [Example 53, 3-(3,5-Diisopropyl-4-methoxybenzylidene)-4-methyl-1,3-dihydroindol-2-one]
16.9 µM	CCc1ccc2c(c1)/C(=C\c1cc(C(C)C)c(OC)c(C(C)C)c1)C(=O)N2 [Example 28, 3-(3,5-Diisopropyl-4-methoxbenzylidene)-5-ethyl-1,3-dihydroindol-2-one]
> 100 µM	COc1c(C(C)C)cc(/C=C2/C(=O)Nc3ncccc32)cc1C(C)C [Example 74, 3-(3,5-Diisopropyl-4-methoxybenzylidene)-1,3-dihydropyrrolo[2,3-b]pyridin-2-one]
> 100 µM	COc1ccc(/C=C2/C(=O)Nc3ncccc32)cc1C1CCCCC1 [Example 72, 3-(3-Cyclohexyl-4-methoxybenzylidene)-1,3-dihydropyrrolo[2,3-b]pyridin-2-one]
> 100 µM	COc1ccc(/C=C2/C(=O)Nc3ncccc32)cc1-c1ccccc1 [Example 71, 3-(6-Methoxybiphenyl-3-ylmethylene)-1,3-dihydropyrrolo[2,3-b]pyridin-2-one]
71.8 µM	COc1ccc(/C=C2/C(=O)Nc3ccc(Cl)cc32)cc1C1CCCCC1 [Example 51, 5-Chloro-3-(3-cyclohexyl-4-methoxybenzylidene)-1,3-dihydroindol-2-one]

Reference: patent publication US6855730B2, “3-methylidenyl-2-indolinone modulators of protein kinase” (Sugen, Inc., priority 1998, dated 2005)
